In publication PMC10226132, “First-in-Class Selective Inhibitors of the Lysine Acetyltransferase KAT8” (Journal of Medicinal Chemistry, 2023):

Legend:
[1] = tested on: UCP2 mRNA in HCT116 cells; assay: qRT-PCR of UCP2 mRNA in HCT116 cells; type: cell-based, human; settings: HCT116, 100 μM, 48 h
Protocol: Total RNA was isolated from cells after 48 h of treatment with compounds 19 and 34 (100 μM) using TRIzol reagent (Life Technologies) following the manufacturer’s instructions. cDNA was obtained by reverse transcription using a SensiFast cDNA Synthesis kit (Meridian Bioscience). qRT-PCR was performed using a Luna Universal qPCR Master Mix (BioLabs) and detected by Quant Studio3. The fold change of gene expression data was calculated by using the ddCT method. All samples were run in sextupled, and the results were presented as mean ± SEM. Detailed sequence of the primers used in the experiments can be found in the list below. • UCP2—Forward: 5′-[…]-3′ • Reverse 5′-[…]-3′ • HOXA9 — Forward: 5′-[…]-3′ • Reverse: 5′-[…]-3′

HCT116 cells = assay: Annexin V/PI analysis, HCT116; type: cell-based, human; settings: 72 h; for apoptotic effect in combination with chloroquine (Annexin V), HCT116: 100 μM compound + CQ 10 μM; for apoptotic cell population (Annexin V), HCT116: 50 and 100 μM, compared to control
Protocol: For the analysis of the progression of cells through cell cycle phases and sub-G1 peak identification, 24 h after plating, cells were treated with the different compounds. After 72 h, both floating and adherent cells were collected and fixed with cold 70% ethanol. At least 24 h after fixation, cells were incubated with 0.025 mg/mL Propidium Iodide for 15 min at room temperature and analyzed. For Annexin V analysis, 24 h after plating, cells were treated with 50 and 100 μM of the compounds. In the case of chloroquine experiments, 10 μM chloroquine (Sigma-Aldrich, A9165) was added 30 min before compounds. 72 h after treatment, both floating and adherent cells were collected and stained with an Annexin V-FITC apoptosis detection kit (ENZO #ALX-850-020-KI). Samples were incubated 15 min in the dark at rt, and 10,000 events were then analyzed.

H4K16Ac in HT29 cells = assay: Western blot of H4K16Ac and KAT8 levels in HT29 cells; type: cell-based, human; settings: increasing concentrations, 24 h
Protocol: For WB experiments, the cells were lysed in RIPA buffer supplemented with 1× […] protease inhibitor cocktail (Sigma-Aldrich, S8830); 20 μg of total protein was resolved in 13.5% gels by SDS-PAGE. Then, the proteins were transferred to nitrocellulose membranes (Biorad Laboratories). Membranes were blocked for 1 h and incubated overnight with the appropriate primary antibody at 4 °C. After incubation, membranes were washed and incubated with the appropriate secondary antibody (Biorad Laboratories) for 1 h at room temperature. Following primary rabbit monoclonal antibodies H4K16Ac (1:1000, E2B8W, Rabbit mAb#13534, Cell Signalling Technology), KAT8 (1:1000, D5T3R Rabbit mAb #46862 Cell Signalling Technology), GAPDH (1:1000, sc-32233, Santa Cruz Biotechnologies), anti-LC3B (Sigma-Aldrich, L7543), anti-SQSTM1/p62 (Santa Cruz Biotechnology, sc-28,359), and anti-GAPDH (Santa Cruz Biotechnology, sc-32,233). Secondary antibodies: anti-mouse (Bio-Rad Laboratories, 1,706,515) or anti-rabbit (Bio-Rad Laboratories, 1,706,516) IgG-horseradish peroxidase-conjugated antibodies. Detection was performed by ECL Western Blotting Substrate (Biorad Laboratories). Images of blots were acquired through the ChemiDoc Imaging Systems (Biorad Laboratories). The band signals were quantified using ImageJ, and values were normalized to relative controls, depending on the analysis.

HeLa cells = assay: MTT cell proliferation assay, HeLa; type: cell-based, human; settings: 10, 25, 50, 100 μM, 72 h
Text: Human commercially available AML U937, breast cancer MCF7, lung adenocarcinoma NCI-H460, H1299 and A-549, glioblastoma U251, B lymphocyte AHH1 cell lines were maintained in compete 10% foetal bovine serum (FBS,) RPMI 1640 (Euroclone, Milan, IT) medium. Human commercially available colon cancer HCT116 and HT29 lines and cervix adenocarcinoma HeLa cells were maintained in compete 10% FBS Dulbecco’s Modified Eagle Medium (DMEM) high glucose medium (Euroclone). L-Glutamine, FBS, and penicillin streptomycin mixture added to medium were obtained from Euroclone. All cell lines were cultured at 37 °C in a humidified atmosphere of 5% CO2:95% air and were tested for mycoplasma contamination routinely by RT-PCR.
For analysis of cell proliferation, cells were plated in sextuplicate on 96-well plates in complete media. After 24 h, cells were exposed to different drugs for 72 h. The inhibitory effect of different drugs was assessed by MTT (Sigma, St. Louis, MO, USA) colorimetric assays as previously reported.[67] Aqueous DMSO (0.5% v/v) was used as a control (untreated). The results are reported as “viability of drug-treated cells/viability of untreated cells” × 100 and represent the average ±SD of three independent experiments. IC50 values were using fitted by nonlinear regression using GraphPad Prism 8.0.

KAT2A = molecular target: T1, KAT2A (Homo sapiens, UniProt Q92830); assay: HotSpot KAT assay, KAT2A; type: biochemical; settings: 200 μM, NI = no inhibition; for inhibition at 200 µM: read-out: % inhibition at 200 μM KAT2A (15 nM)
T1 construct: human KAT2A (aa 323–837, 15 nM); purchased Reaction Biology Corporation
T1 sequence (Q92830 323-837): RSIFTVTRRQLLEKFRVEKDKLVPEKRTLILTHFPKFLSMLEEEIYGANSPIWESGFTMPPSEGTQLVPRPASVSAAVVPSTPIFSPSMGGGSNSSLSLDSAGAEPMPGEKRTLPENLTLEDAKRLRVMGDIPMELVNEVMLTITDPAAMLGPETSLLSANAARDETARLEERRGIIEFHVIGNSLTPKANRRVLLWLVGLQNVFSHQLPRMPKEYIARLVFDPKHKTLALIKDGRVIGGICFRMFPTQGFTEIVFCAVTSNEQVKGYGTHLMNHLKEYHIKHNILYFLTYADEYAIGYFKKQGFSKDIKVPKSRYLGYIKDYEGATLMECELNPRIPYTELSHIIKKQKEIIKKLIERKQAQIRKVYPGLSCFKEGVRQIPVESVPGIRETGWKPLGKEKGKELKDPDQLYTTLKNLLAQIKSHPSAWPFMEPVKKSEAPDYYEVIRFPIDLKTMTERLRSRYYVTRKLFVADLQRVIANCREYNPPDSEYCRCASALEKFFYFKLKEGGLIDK
Protocol: The effects of the compounds on other KATs were determined using the HotSpot KAT assay (Reaction Biology Corporation, Malvern, PA, USA) according to the supplier’s procedure. The recombinant catalytic domains of human KAT2A (aa 323–837, 15 nM), KAT2B (aa 492–658, 25 nM), KAT3B (aa 1284–1672, 1 nM), KAT6A (aa 488–778, 10 nM), KAT6B (aa 657–1069, 10 nM), and full length human KAT5 (25 nM) and KAT7 (25 nM) were used. Each enzyme was incubated with the relevant histone peptide [H3 peptide for KAT2A, KAT2B, KAT3B, KAT6A, and KAT7 (2.5–5 μM, depending on the KAT isoform); H2A peptide for KAT5 (1.25 μM); H4 peptide for KAT6B (2.5 μM)] as a substrate and radio-isotope-labeled [^3H]Acetyl-CoA (0.2–1.5 μM, depending on the KAT isoform) as an acetyl donor in the assay buffer [50 mM Tris–HCl (pH 8.0), 50 mM NaCl, 0.1 mM EDTA, 1 mM DTT, 0.1 mM PMSF, 1% DMSO] for 1 h at 30 °C in the presence or absence of various compounds (1% DMSO final) titrated in a 2-fold serial dilution starting at 200 μM. Histone peptide acetylation was assessed by liquid scintillation counting using a Tri-Carb 2800TR Liquid Scintillation Analyzer (Perkin Elmer). Experiments were performed in biological triplicates. Signal reduction compared to control was plotted (as inhibition percentage) as a function of compound concentration. In cases in which an IC50 was calculated, the values were fitted by nonlinear regression (GraphPad Prism 8.0).

% inhibition at 200 μM KAT2A (15 nM) (KAT2A) | inhibition at 200 µM (KAT2A) [%] | SMILES | UCP2 mRNA levels [1] | apoptotic effect in combination with chloroquine (Annexin V), HCT116 (HCT116 cells) | apoptotic cell population (Annexin V), HCT116 (HCT116 cells) | KAT8 expression level (WB) (H4K16Ac in HT29 cells) | histone H4K16 acetylation levels (WB) (H4K16Ac in HT29 cells) | antiproliferative activity in HeLa (HeLa cells)
did not inhibit | 0 | O=C(O)c1ccc(N2N=C(c3ccccc3)/C(=C/c3ccc[nH]3)C2=O)cc1 [Compound 34, (Z)-4-(4-((1H-Pyrrol-2-yl)methylene)-5-oxo-3-phenyl-4,5-dihydro-1H-pyrazol-1-yl)benzoic Acid] | reduce the mRNA levels of UCP2 | increased the apoptotic effect | only a slight increase in apoptotic cell population | no consistent variation in KAT8 levels | induced a decrease in histone H4 acetylation levels | a certain degree of antiproliferative activity
did not inhibit | 0 | CC1=NN(c2ccc(C(=O)O)cc2)C(=O)/C1=C\c1ccc[nH]1 [Compound 19, (Z)-4-(4-((1H-Pyrrol-2-yl)methylene)-3-methyl-5-oxo-4,5-dihydro-1H-pyrazol-1-yl)benzoic Acid] | reduce the mRNA levels of UCP2 | increased the apoptotic effect | only a slight increase in apoptotic cell population | no consistent variation in KAT8 levels | induced a decrease in histone H4 acetylation levels | a certain degree of antiproliferative activity
